In ChEMBL document CHEMBL5500372, “Novel natural osthole-inspired amphiphiles as membrane targeting antibacterials against methicillin-resistant Staphylococcus aureus (MRSA)” (Eur J Med Chem, 2024):
The source made the active and inactive calls.

Tests used:
[1] = tested on: Staphylococcus aureus; experiment: Bactericidal activity against Staphylococcus aureus ATCC 29213 assessed as eradication of bacteria at 8 times MIC measured after 8 hrs by time-kill assay; format: functional, organism-based
[2] = tested on: Staphylococcus aureus; experiment: Bactericidal activity against methicillin-resistant Staphylococcus aureus clinical isolate 16 assessed as eradication of bacteria at 8 times MIC measured after 8 hrs by time-kill assay; format: functional, organism-based
[3] = tested on: Staphylococcus aureus; experiment: Antibacterial activity against methicillin-resistant Staphylococcus aureus clinical isolate 16 infected in female KM mouse skin abscess model assessed as effect on abscess in back skin at 5 mg/kg, sc measured after 24 hrs; format: functional, organism-based
[4] = tested on: Staphylococcus aureus; experiment: Antibacterial activity against methicillin-resistant Staphylococcus aureus clinical isolate 16 infected in female KM mouse skin abscess model assessed as effect on abscess in intradermal tissue at 5 mg/kg, sc measured after 24 hrs; format: functional, organism-based
[5] = tested on: Staphylococcus aureus; experiment: Antibacterial activity against methicillin-resistant Staphylococcus aureus clinical isolate 16 infected in female KM mouse skin abscess model assessed as reduction in inflammatory cells at 5 mg/kg, sc measured after 24 hrs by H and E staining based analysis; format: functional, organism-based
[6] = tested on: Staphylococcus aureus; experiment: Antibacterial activity against methicillin-resistant Staphylococcus aureus clinical isolate 16 infected in female KM mouse skin abscess model assessed as reduction in number of MRSA cells at 5 mg/kg, sc measured after 24 hrs; format: functional, organism-based
[7] = tested on: Staphylococcus aureus; experiment: Antibacterial activity against methicillin-resistant Staphylococcus aureus clinical isolate 16 infected in female KM mouse skin abscess model assessed as reduction in bacterial load at 5 mg/kg, sc measured after 24 hrs relative to control; format: functional; parameters: scale not given: the % may be the effect or the level left
[8] = tested on: Staphylococcus aureus; experiment: Antibacterial activity against methicillin-resistant Staphylococcus aureus clinical isolate 16 infected in female KM mouse skin abscess model assessed as log reduction in bacterial load at 5 mg/kg, sc measured after 24 hrs (reference value: 8.508 log10CFU/g); format: functional
[9] = tested on: Staphylococcus aureus; experiment: Antibacterial activity against methicillin-resistant Staphylococcus aureus clinical isolate 16 infected in female KM mouse skin abscess model assessed as reduction in TNF-alpha level at 5 mg/kg, sc measured after 24 hrs by ELISA method; format: functional, organism-based
[10] = tested on: Staphylococcus aureus; experiment: Antibacterial activity against methicillin-resistant Staphylococcus aureus clinical isolate 16 infected in female KM mouse skin abscess model assessed as reduction in IL-6 level at 5 mg/kg, sc measured after 24 hrs by ELISA method; format: functional, organism-based
[11] = Toxicity in female KM mouse skin abscess model infected with methicillin-resistant Staphylococcus aureus clinical isolate 16 assessed as effect on heart at 5 mg/kg, sc measured after 24 hrs by H and E staining based analysis; format: organism-based; settings: in vivo
[12] = Toxicity in female KM mouse skin abscess model infected with methicillin-resistant Staphylococcus aureus clinical isolate 16 assessed as effect on liver at 5 mg/kg, sc measured after 24 hrs by H and E staining based analysis; format: organism-based; settings: in vivo
[13] = Toxicity in female KM mouse skin abscess model infected with methicillin-resistant Staphylococcus aureus clinical isolate 16 assessed as effect on spleen at 5 mg/kg, sc measured after 24 hrs by H and E staining based analysis; format: organism-based; settings: in vivo
[14] = Toxicity in female KM mouse skin abscess model infected with methicillin-resistant Staphylococcus aureus clinical isolate 16 assessed as effect on lung at 5 mg/kg, sc measured after 24 hrs by H and E staining based analysis; format: organism-based; settings: in vivo
[15] = Toxicity in female KM mouse skin abscess model infected with methicillin-resistant Staphylococcus aureus clinical isolate 16 assessed as effect on kidney at 5 mg/kg, sc measured after 24 hrs by H and E staining based analysis; format: organism-based; settings: in vivo
[16] = Toxicity in female KM mouse skin abscess model infected with methicillin-resistant Staphylococcus aureus clinical isolate 16 assessed as histological abnormalities in heart at 5 mg/kg, sc measured after 24 hrs by H and E staining based analysis; format: organism-based; settings: in vivo
[17] = Toxicity in female KM mouse skin abscess model infected with methicillin-resistant Staphylococcus aureus clinical isolate 16 assessed as histological abnormalities in liver at 5 mg/kg, sc measured after 24 hrs by H and E staining based analysis; format: organism-based; settings: in vivo
[18] = Toxicity in female KM mouse skin abscess model infected with methicillin-resistant Staphylococcus aureus clinical isolate 16 assessed as histological abnormalities in spleen at 5 mg/kg, sc measured after 24 hrs by H and E staining based analysis; format: organism-based; settings: in vivo
[19] = Toxicity in female KM mouse skin abscess model infected with methicillin-resistant Staphylococcus aureus clinical isolate 16 assessed as histological abnormalities in lung at 5 mg/kg, sc measured after 24 hrs by H and E staining based analysis; format: organism-based; settings: in vivo
[20] = Toxicity in female KM mouse skin abscess model infected with methicillin-resistant Staphylococcus aureus clinical isolate 16 assessed as histological abnormalities in kidney at 5 mg/kg, sc measured after 24 hrs by H and E staining based analysis; format: organism-based; settings: in vivo

Measured: Activity

CN[C@H](CC(C)C)C(=O)N[C@H]1C(=O)N[C@@H](CC(N)=O)C(=O)N[C@H]2C(=O)N[C@H]3C(=O)N[C@H](C(=O)N[C@H](C(=O)O)c4cc(O)cc(O)c4-c4cc3ccc4O)[C@H](O)c3ccc(c(Cl)c3)Oc3cc2cc(c3O[C@@H]2O[C@H](CO)[C@@H](O)[C@H](O)[C@H]2O[C@H]2C[C@](C)(N)[C@H](O)[C@H](C)O2)Oc2ccc(cc2Cl)[C@H]1O [VANCOMYCIN]
active: [3] | [4] | [5] | [6] | [9] | [10]
1.922 log10CFU/g: [8]
inactive: [1] | [2]
98.93%: [7]
Non-Toxic: all other assays above
